Where “and” joins values, the source holds several entries; their conditions need not be identical. Equal entries are not always repeated.
What was measured:
CYP1A2 = target: T1, CYP1A2 (Homo sapiens, UniProt P05177); assay: In vitro CYP inhibition, pooled human liver microsomes
T1 sequence (P05177 1-516): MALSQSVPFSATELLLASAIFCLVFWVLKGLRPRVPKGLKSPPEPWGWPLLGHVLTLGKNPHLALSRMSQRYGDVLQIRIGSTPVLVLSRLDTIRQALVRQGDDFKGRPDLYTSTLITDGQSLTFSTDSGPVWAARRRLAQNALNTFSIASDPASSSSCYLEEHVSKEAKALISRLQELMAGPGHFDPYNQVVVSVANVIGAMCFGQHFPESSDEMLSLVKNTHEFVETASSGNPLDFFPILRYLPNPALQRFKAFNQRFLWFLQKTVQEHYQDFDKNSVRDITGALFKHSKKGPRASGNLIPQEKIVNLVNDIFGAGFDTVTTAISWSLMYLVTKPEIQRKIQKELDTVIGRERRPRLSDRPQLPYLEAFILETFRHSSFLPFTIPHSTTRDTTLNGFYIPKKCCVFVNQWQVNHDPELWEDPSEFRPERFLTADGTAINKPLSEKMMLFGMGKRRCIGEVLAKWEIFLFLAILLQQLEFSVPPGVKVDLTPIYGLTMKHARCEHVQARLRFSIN
Experimental: Next, we tested VZHE-039 at concentrations of 0.1 to 100 µM, considered to be biologically relevant unbound plasma concentrations, for possible CYP inhibition using pooled human liver microsomes and isozyme-specific probe substrates (CYP1A2, CYP2C8, CYP2C9, CYP2C19, CYP2D6, CYP3A4, CYP2B6)[55].
VZHE-039 was studied for its inhibitory potential of seven major drug metabolizing human cytochrome P450 (CYP) enzymes (CYP1A2, CYP2C8, CYP2C9, CYP2C19, CYP2D6, CYP3A4, CYP2B6) using pooled human liver microsomes as published previously[26],[55]. The probe substrates include tacrine (CYP1A2), amodiaquine (CYP2C8), tolbutamide (CYP2C9), mephenytoin (CYP2C19), dextromethorphan (CYP2D6), midazolam (CYP3A4), testosterone (CYP3A4), and bupropion (CYP2B6). […] Assay conditions were optimized for each human cytochrome P450 substrate. The optimized reaction mixtures (200 μL) contained a final concentration of 0.2–0.5 mg/mL pooled human liver microsomes, 2 mM NADPH in 100 mM potassium phosphate, pH 7.4 buffer with 5 mM MgCl2, and VZHE-039 concentration of 0.1 to 100 µM. […] Effect of VZHE-039 on formation of the respective probe substrate metabolites (velnacrine, N‐desethylamodiaquine, 4-hydroxytolbutamide, 4′-hydroxymephenytoin, dextrophan, 1′-hydroxymidazolam, and 6β-hydroxtestosterone and hydroxybupropion) were determined using LC–MS/MS.

Hb = target: T2, Hb (Homo sapiens, UniProt P69905); assay: Oxygen equilibrium (P50 shift) of lysates from SS cells, Hemox Analyzer; type: cell-based; conditions: 20% hematocrit
T2 construct: whole blood suspensions from subjects with homozygous SCD (Hct of 20%); from tissue; host or cells: whole blood / red blood cells of patients with homozygous SS sickle cell disease; lysate for HPLC and OEC
T2 sequence (P69905 2-142): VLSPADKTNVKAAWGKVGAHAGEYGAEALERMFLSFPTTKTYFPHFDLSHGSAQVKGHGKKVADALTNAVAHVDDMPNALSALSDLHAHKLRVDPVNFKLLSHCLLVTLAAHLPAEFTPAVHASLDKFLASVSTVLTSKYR
T2 sequence (P68871 with tags, fused parts or gaps E7V partner): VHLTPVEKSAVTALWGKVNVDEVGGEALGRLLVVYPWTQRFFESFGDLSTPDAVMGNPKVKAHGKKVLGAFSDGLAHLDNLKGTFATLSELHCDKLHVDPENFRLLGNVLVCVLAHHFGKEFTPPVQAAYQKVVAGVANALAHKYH
Experimental: For our previously studied compounds (e.g., INN-312, TD-7, SAJ-310, INN-298) that incorporate methoxyPy substitution to vanillin analogs, we observed a significant increase in functional and biological activity as a result of increased protein interactions[31],[33],[35],[36]. We therefore expected similar effects for VZHE-039, which we tested by following VZHE-039 activity (measured by Hb adduct formation, P50-shift and RBC sickling inhibition) using SS blood. Briefly, we incubated 0.5, 1, and 2 mM concentrations of VZHE-039 with whole blood suspensions from subjects with homozygous SCD (Hct of 20%) under hypoxic conditions (2.5% O2/97.5% N2) at 37 °C for 2 h for expected peak adduct. Aliquot blood samples were drawn into a fixative (2% glutaraldehyde solution), and sickling was assessed by microscopy[31],[33],[35],[36]. Aliquot samples were also subjected to cation-exchange HPLC analyses to assess the degree of Hb modification to the high-affinity adduct form (Hb adduct formation), as well as standard O2 equilibrium curves (OEC) to assess P50-shifts using hemox analyzer[31],[33],[35],[36]. […] The improved potency of Voxelotor has been attributed to reduced binding stoichiometry, i.e. while Voxelotor binds Hb at a 1:1 ratio, VZHE-039 binds Hb at a 2:1 ratio. […] This observation, as will be discussed later is likely due to a meaningful contribution from the novel O2-independent antisickling activity as result of the strong contact with the αF-helix.
The effect of VZHE-039 on RBC sickling, Hb modification, and Hb oxygen equilibrium was studied utilizing samples from consented individuals with homozygous SCD following previous procedure. Briefly, blood suspended in Hemox buffer and supplemented with glucose and bovine serum albumin, to a final hematocrit of 20% were incubated under air in the absence or presence of 0.5 mM, 1 mM and 2 mM VZHE-039 at 37 °C for 1 h. This was followed by incubating the suspensions under hypoxic conditions (2.5% O2/97.5% N2) at 37 °C for 2 h. Aliquot samples were obtained and fixed with 2% glutaraldehyde solution without exposure to air, and then subjected to microscopic morphological analysis of bright field images (at × 40 magnification) of single layer cells on an Olympus BX40 microscope fitted with an Infinity 2 camera (Olympus), and the coupled Image Capture software. Leftover samples were washed in phosphate-buffer saline, and hemolyzed in hypotonic lysis buffer for subsequent Hb-modification and oxygen equilibrium analyses.
For the oxygen equilibrium studies, 100 μL aliquot samples from the above clarified lysate were added to 4 mL of 0.1 M potassium phosphate buffer, pH 7.0, in cuvettes and subjected to hemoximetry analysis using a Hemox Analyzer (TCS Scientific Corp.) to determine the P50 values.

SMILES: O=Cc1c(O)cccc1OCc1cccc(CO)n1 [VZHE-039, 2-((6-(Hydroxymethyl)pyridin-2-yl)methoxy)-6-hydroxybenzaldehyde]
- IC50 (CYP1A2): 4.7 µM
- P50 Shift (ΔP50) (Hb; 0.5 mM): 22% and 22.3 ± 8.7%
- P50 Shift (ΔP50) (Hb; 1 mM): 47% and 46.6 ± 5.4%
- P50 Shift (ΔP50) (Hb; 2 mM): 76% and 75.6 ± 2.5%

Reference: article PMC7679387, “VZHE-039, a novel antisickling agent that prevents erythrocyte sickling under both hypoxic and anoxic conditions” (Scientific Reports, 2020)
